Assay results: patent US20210353579A1, “HIGH PENETRATION COMPOSITIONS AND USES THEREOF” (Techfields Pharma Co., Ltd., priority 2006, published 2021)

What was measured:
[1] = test system: Chinese white rabbits; assay: Autologous blood clot pulmonary embolization, thrombus propagation; type: in vivo, rabbit; conditions: 20 mg/kg topically, after 2 days
Protocol: Eighteen Chinese White rabbits weighing between 3.0 and 3.5 kg (aged 6-7 months) were selected and divided into three groups (control, P-1 and […] groups, n=6). One hour before the experiment, thrombi were made by aspirating venous blood (1 ml) into a sterilized bottle to clot. To avoid fragmentation and slow lysis, the autologous blood clots were stabilized in temperature-controlled (70° C.) distilled water for 10 min. After anesthesia, the femoral veins were exposed and distally isolated, and autologous blood clots (0.05 g/kg) were injected through an indwelling catheter (20 GA), which had been placed in the femoral vein isolated earlier. 50% acetone solution of diethylaminoethyl acetylsalicylate.acetylsalicylic acid salt (P-1, in acetone, 20 mg/kg) and diethylaminoethyl acetylsalicylsalicylate. acetylsalicylsalicylic acid salt (P-59, 20 mg/kg) were topically applied to the back of the rabbits. After 2 days, rabbits were euthanized with an excessive intravenous injection of sodium amobarbital (60 mg/kg). The lungs and hearts were isolated to observe whether thrombi were present in the pulmonary arteries. The lungs were immersed in 10% formalin for 24 h. Consecutive transverse sections along the obstructed pulmonary arteries were paraffin-embedded and stained with hematoxylin-eosine. […]

[2] = test system: normal rats; assay: Blood glucose in normal rats, transdermal; type: in vivo, rat
How it was run: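 Compounds equivalent to 20 mg/kg NSAIA were applied transdermally to a shaved ~1.5 cm^2 area of rat backs once daily at 8 am for 5 weeks (n=7). Non-fasting blood glucose was measured every 3 days at 3 pm from week 2 to week 5, and blood lipids at the end of week 5.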

For `CC(=O)Oc1ccccc1C(=O)O.CCN(CC)CCOC(=O)c1ccccc1OC(C)=O` [P-1, diethylaminoethyl acetylsalicylate.acetylsalicylic acid salt], the “lung tissue and vascular walls (thrombus propagation)” value [1] was “both lung tissue and vascular walls were normal”, the “Blood glucose, Average” value ([2]; normal rats (second Average line of Table 24), average second to fifth week, equal to 20 mg/kg of NSAIAs once per day) was 6.3 ± 1 mmol/L and the “Blood glucose, Baseline” value ([2]; normal rats (second Baseline line of Table 24), baseline, equal to 20 mg/kg of NSAIAs) was 6.4 ± 1 mmol/L.
